Reference: ChEMBL document CHEMBL1201862, “PubChem BioAssay data set” (2004)
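Tested at 5 concentrations; 48 h exposure; 96-well plates; endpoints linearly interpolated, else capped at highest concentration. Abbreviation: GI50, concentration required for 50% inhibition of growth.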 Activity calls are given as the source filed them. Cut-off read from the data, not from the text of the source: active = GI50 up to about 1.1 µM and inactive = higher.

Key:
Assay in all cases: NCI anticancer screen, dose series, 48 h
SNB-19 = tested on: SNB-19
U-251 = tested on: U-251
MDA-N = tested on: MDA-N
BT-549 = tested on: BT-549
Malme-3M = tested on: Malme-3M
T47D = tested on: T47D
HT-29 = tested on: HT-29
SK-MEL-28 = tested on: SK-MEL-28
MOLT-4 = tested on: MOLT-4
SK-MEL-2 = tested on: SK-MEL-2
SK-OV-3 = tested on: SK-OV-3
NCI/ADR-RES = tested on: NCI/ADR-RES
SW-620 = tested on: SW-620
SNB-75 = tested on: SNB-75
COLO 205 = tested on: COLO 205
RXF 393 = tested on: RXF 393
SN12C = tested on: SN12C
EKVX = tested on: EKVX
K562 = tested on: K562
NCI-H23 = tested on: NCI-H23

SMILES	GI50 (SNB-19)	GI50 (U-251)	GI50 (MDA-N)	GI50 (BT-549)	GI50 (Malme-3M)	GI50 (T47D)	GI50 (HT-29)	GI50 (SK-MEL-28)	GI50 (MOLT-4)	GI50 (SK-MEL-2)	GI50 (SK-OV-3)	GI50 (NCI/ADR-RES)	GI50 (SW-620)	GI50 (SNB-75)	GI50 (COLO 205)	GI50 (RXF 393)	GI50 (SN12C)	GI50 (EKVX)	GI50 (K562)	GI50 (NCI-H23)
C=C(C)CNCC(=C)C.Oc1c(Cl)c(Cl)c(Cl)c(Cl)c1Cl	32.1 µM (inactive)	17.9 µM (inactive)	18.7 µM (inactive)	25.4 µM (inactive)	17.4 µM (inactive)	18.2 µM (inactive)	20.1 µM (inactive)	28.2 µM (inactive)	20.1 µM (inactive)	17.7 µM (inactive)	43.4 µM (inactive)	23.8 µM (inactive)	31.1 µM (inactive)	16.6 µM (inactive)	22.7 µM (inactive)	20 µM (inactive)	20.2 µM (inactive)	17.9 µM (inactive)	32.4 µM (inactive)	22.3 µM (inactive)
COc1cc2c(cc1OC)-c1cc3cc(OC)c(OC)cc3c(=O)n1CC2	20.7 µM (inactive)	17.3 µM (inactive)	67.9 µM (inactive)	37.3 µM (inactive)	8.04 µM (inactive)	2.58 µM (inactive)	28.6 µM (inactive)	> 62.1 µM (inactive)	3.51 µM (inactive)	11.5 µM (inactive)	14.1 µM (inactive)	21.7 µM (inactive)	9.51 µM (inactive)	9.4 µM (inactive)	26.5 µM (inactive)	17.3 µM (inactive)	14.6 µM (inactive)	28.8 µM (inactive)	10.4 µM (inactive)	46.5 µM (inactive)
O=C(O)CNC(=O)c1ccc([As](=O)(O)O)cc1	> 100 µM (inactive)	> 100 µM (inactive)	> 100 µM (inactive)	> 100 µM (inactive)	> 100 µM (inactive)	> 100 µM (inactive)	> 100 µM (inactive)	> 100 µM (inactive)	> 100 µM (inactive)	> 100 µM (inactive)	> 100 µM (inactive)	> 100 µM (inactive)	> 100 µM (inactive)	> 100 µM (inactive)	> 100 µM (inactive)	> 100 µM (inactive)	> 100 µM (inactive)	> 100 µM (inactive)	> 100 µM (inactive)	> 100 µM (inactive)
CC1OC23CCCCC2C(C#N)(C#N)C1(C#N)C(=N)O3 (stereo not given)	22.8 µM (inactive)	22.8 µM (inactive)	18.4 µM (inactive)	17.7 µM (inactive)	20.4 µM (inactive)	18.7 µM (inactive)	27.1 µM (inactive)	21.7 µM (inactive)	23.2 µM (inactive)	19.9 µM (inactive)	> 100 µM (inactive)	37.4 µM (inactive)	8.75 µM (inactive)	38.3 µM (inactive)	14.7 µM (inactive)	19.7 µM (inactive)	15.3 µM (inactive)	28.6 µM (inactive)	13.7 µM (inactive)	21 µM (inactive)
Brc1ccc(C2CC3(c4ccccc4)ON=C(c4ccccc4)N3c3ccccc3S2)cc1 (stereo not given)	> 100 µM (inactive)	> 100 µM (inactive)	> 100 µM (inactive)	> 100 µM (inactive)	> 100 µM (inactive)	> 100 µM (inactive)	9.16 µM (inactive)	> 100 µM (inactive)	> 100 µM (inactive)	> 100 µM (inactive)	> 100 µM (inactive)	> 100 µM (inactive)	> 100 µM (inactive)	> 100 µM (inactive)	> 100 µM (inactive)	> 100 µM (inactive)	> 100 µM (inactive)	> 100 µM (inactive)	> 100 µM (inactive)	> 100 µM (inactive)
CCOP(=O)(OCC)OC1CC(n2cc(C)c(=O)n(C)c2=O)OC1CO[Si](C)(C)C(C)(C)C (stereo not given)	> 100 µM (inactive)	> 100 µM (inactive)	> 100 µM (inactive)	55.1 µM (inactive)	> 100 µM (inactive)	17.8 µM (inactive)	> 100 µM (inactive)	> 100 µM (inactive)	37 µM (inactive)	> 100 µM (inactive)	> 100 µM (inactive)	46.5 µM (inactive)	> 100 µM (inactive)	75.9 µM (inactive)	> 100 µM (inactive)	21.6 µM (inactive)	7.06 µM (inactive)	24.4 µM (inactive)	48.4 µM (inactive)	> 100 µM (inactive)
COC(=O)NC(Nc1ccc(C)cc1)(C(F)(F)F)C(F)(F)F	> 100 µM (inactive)	> 100 µM (inactive)	> 100 µM (inactive)	> 100 µM (inactive)	> 100 µM (inactive)	> 100 µM (inactive)	> 100 µM (inactive)	> 100 µM (inactive)	> 100 µM (inactive)	> 100 µM (inactive)	> 100 µM (inactive)	> 100 µM (inactive)	> 100 µM (inactive)	> 100 µM (inactive)	> 100 µM (inactive)	0.172 µM (active)	> 100 µM (inactive)	> 100 µM (inactive)	> 100 µM (inactive)	> 100 µM (inactive)
Cn1c(=O)n2n(c1=O)C1C(=CC2)C2C=CC1n1c(=O)n(C)c(=O)n12 (stereo not given)	> 100 µM (inactive)	> 100 µM (inactive)	> 100 µM (inactive)	> 100 µM (inactive)	> 100 µM (inactive)	> 100 µM (inactive)	> 100 µM (inactive)	> 100 µM (inactive)	> 100 µM (inactive)	> 100 µM (inactive)	> 100 µM (inactive)	> 100 µM (inactive)	> 100 µM (inactive)	> 100 µM (inactive)	> 100 µM (inactive)	> 100 µM (inactive)	> 100 µM (inactive)	> 100 µM (inactive)	> 100 µM (inactive)	> 100 µM (inactive)
O=C1CC2(c3ccccc3)ON=C(c3ccccc3)N2c2ccccc2N1 (stereo not given)	> 100 µM (inactive)	80.9 µM (inactive)	32.7 µM (inactive)	37.2 µM (inactive)	44.5 µM (inactive)	24.6 µM (inactive)	38.3 µM (inactive)	50.6 µM (inactive)	29.7 µM (inactive)	50.2 µM (inactive)	19.7 µM (inactive)	35.1 µM (inactive)	62.4 µM (inactive)	52 µM (inactive)	51.8 µM (inactive)	87.1 µM (inactive)	52.7 µM (inactive)	57.1 µM (inactive)	38.8 µM (inactive)	47.3 µM (inactive)
O/N=C1\CCc2cc3c(cc21)CCC3	> 100 µM (inactive)	> 100 µM (inactive)	> 100 µM (inactive)	> 100 µM (inactive)	> 100 µM (inactive)	86.3 µM (inactive)	> 100 µM (inactive)	> 100 µM (inactive)	> 100 µM (inactive)	> 100 µM (inactive)	> 100 µM (inactive)	> 100 µM (inactive)	> 100 µM (inactive)	44.3 µM (inactive)	> 100 µM (inactive)	> 100 µM (inactive)	> 100 µM (inactive)	5.65 µM (inactive)	> 100 µM (inactive)	> 100 µM (inactive)
COC(=O)/C(C#N)=C(\Nc1ccccc1)N1CCCC1	> 100 µM (inactive)	> 100 µM (inactive)	> 100 µM (inactive)	> 100 µM (inactive)	> 100 µM (inactive)	> 100 µM (inactive)	> 100 µM (inactive)	> 100 µM (inactive)	> 100 µM (inactive)	> 100 µM (inactive)	> 100 µM (inactive)	> 100 µM (inactive)	> 100 µM (inactive)	> 100 µM (inactive)	> 100 µM (inactive)	> 100 µM (inactive)	> 100 µM (inactive)	> 100 µM (inactive)	> 100 µM (inactive)	> 100 µM (inactive)
O=C1C(Cl)C(c2cc3cc(Br)ccc3nc2Cl)N1c1ccc(F)c(Cl)c1 (stereo not given)	9.73 µM (inactive)	2.77 µM (inactive)	7.03 µM (inactive)	7.52 µM (inactive)	11 µM (inactive)	8.09 µM (inactive)	10.7 µM (inactive)	14.6 µM (inactive)	0.594 µM (active)	8.83 µM (inactive)	6.75 µM (inactive)	5.57 µM (inactive)	5.98 µM (inactive)	8.61 µM (inactive)	6.62 µM (inactive)	5.4 µM (inactive)	7.73 µM (inactive)	1.42 µM (inactive)	3.07 µM (inactive)	3.83 µM (inactive)
Cc1cc(N2CCCC2)c([N+](=O)[O-])cc1[N+](=O)[O-]	> 100 µM (inactive)	> 100 µM (inactive)	> 100 µM (inactive)	> 100 µM (inactive)	> 100 µM (inactive)	> 100 µM (inactive)	> 100 µM (inactive)	> 100 µM (inactive)	> 100 µM (inactive)	> 100 µM (inactive)	> 100 µM (inactive)	> 100 µM (inactive)	> 100 µM (inactive)	> 100 µM (inactive)	> 100 µM (inactive)	80.9 µM (inactive)	> 100 µM (inactive)	> 100 µM (inactive)	> 100 µM (inactive)	> 100 µM (inactive)
O=C(O)CO/N=C1/C(=C2/C(=O)Nc3ccccc32)Nc2ccccc21	> 100 µM (inactive)	82.6 µM (inactive)	50.9 µM (inactive)	51.9 µM (inactive)	30.5 µM (inactive)	35.8 µM (inactive)	44.5 µM (inactive)	50.8 µM (inactive)	41.4 µM (inactive)	25.8 µM (inactive)	22.4 µM (inactive)	> 100 µM (inactive)	62.5 µM (inactive)	27 µM (inactive)	57.5 µM (inactive)	19.5 µM (inactive)	88.3 µM (inactive)	24.9 µM (inactive)	79.8 µM (inactive)	31.6 µM (inactive)
